Test results reported in PMC12337661, “PIEZO1 mechanical insensitivity in generalized lymphatic dysplasia with the potential for pharmacological rescue” (iScience, 2025).
Values after ≈ are worked out from the molar mass of the structure shown.

Key:
[1] = Mouse plasma protein binding; assay type: in vitro ADME
Experimental: (§1) Aqueous solubility, mouse microsomal stability and mouse plasma protein binding assays were performed by Malvern Panalytical (UK) as previously described.[29]

WT mPIEZO1 = molecular target: T1, WT mPIEZO1 (Mus musculus, UniProt E2JF22); experiment: Long substance exposure and hypo-osmolality protocol Ca2+ assay; assay type: cell-based; conditions: 10 μM, 20-min exposure, hypotonic assay
T1 construct: expressed in transfected cells
T1 sequence (E2JF22 whole entry): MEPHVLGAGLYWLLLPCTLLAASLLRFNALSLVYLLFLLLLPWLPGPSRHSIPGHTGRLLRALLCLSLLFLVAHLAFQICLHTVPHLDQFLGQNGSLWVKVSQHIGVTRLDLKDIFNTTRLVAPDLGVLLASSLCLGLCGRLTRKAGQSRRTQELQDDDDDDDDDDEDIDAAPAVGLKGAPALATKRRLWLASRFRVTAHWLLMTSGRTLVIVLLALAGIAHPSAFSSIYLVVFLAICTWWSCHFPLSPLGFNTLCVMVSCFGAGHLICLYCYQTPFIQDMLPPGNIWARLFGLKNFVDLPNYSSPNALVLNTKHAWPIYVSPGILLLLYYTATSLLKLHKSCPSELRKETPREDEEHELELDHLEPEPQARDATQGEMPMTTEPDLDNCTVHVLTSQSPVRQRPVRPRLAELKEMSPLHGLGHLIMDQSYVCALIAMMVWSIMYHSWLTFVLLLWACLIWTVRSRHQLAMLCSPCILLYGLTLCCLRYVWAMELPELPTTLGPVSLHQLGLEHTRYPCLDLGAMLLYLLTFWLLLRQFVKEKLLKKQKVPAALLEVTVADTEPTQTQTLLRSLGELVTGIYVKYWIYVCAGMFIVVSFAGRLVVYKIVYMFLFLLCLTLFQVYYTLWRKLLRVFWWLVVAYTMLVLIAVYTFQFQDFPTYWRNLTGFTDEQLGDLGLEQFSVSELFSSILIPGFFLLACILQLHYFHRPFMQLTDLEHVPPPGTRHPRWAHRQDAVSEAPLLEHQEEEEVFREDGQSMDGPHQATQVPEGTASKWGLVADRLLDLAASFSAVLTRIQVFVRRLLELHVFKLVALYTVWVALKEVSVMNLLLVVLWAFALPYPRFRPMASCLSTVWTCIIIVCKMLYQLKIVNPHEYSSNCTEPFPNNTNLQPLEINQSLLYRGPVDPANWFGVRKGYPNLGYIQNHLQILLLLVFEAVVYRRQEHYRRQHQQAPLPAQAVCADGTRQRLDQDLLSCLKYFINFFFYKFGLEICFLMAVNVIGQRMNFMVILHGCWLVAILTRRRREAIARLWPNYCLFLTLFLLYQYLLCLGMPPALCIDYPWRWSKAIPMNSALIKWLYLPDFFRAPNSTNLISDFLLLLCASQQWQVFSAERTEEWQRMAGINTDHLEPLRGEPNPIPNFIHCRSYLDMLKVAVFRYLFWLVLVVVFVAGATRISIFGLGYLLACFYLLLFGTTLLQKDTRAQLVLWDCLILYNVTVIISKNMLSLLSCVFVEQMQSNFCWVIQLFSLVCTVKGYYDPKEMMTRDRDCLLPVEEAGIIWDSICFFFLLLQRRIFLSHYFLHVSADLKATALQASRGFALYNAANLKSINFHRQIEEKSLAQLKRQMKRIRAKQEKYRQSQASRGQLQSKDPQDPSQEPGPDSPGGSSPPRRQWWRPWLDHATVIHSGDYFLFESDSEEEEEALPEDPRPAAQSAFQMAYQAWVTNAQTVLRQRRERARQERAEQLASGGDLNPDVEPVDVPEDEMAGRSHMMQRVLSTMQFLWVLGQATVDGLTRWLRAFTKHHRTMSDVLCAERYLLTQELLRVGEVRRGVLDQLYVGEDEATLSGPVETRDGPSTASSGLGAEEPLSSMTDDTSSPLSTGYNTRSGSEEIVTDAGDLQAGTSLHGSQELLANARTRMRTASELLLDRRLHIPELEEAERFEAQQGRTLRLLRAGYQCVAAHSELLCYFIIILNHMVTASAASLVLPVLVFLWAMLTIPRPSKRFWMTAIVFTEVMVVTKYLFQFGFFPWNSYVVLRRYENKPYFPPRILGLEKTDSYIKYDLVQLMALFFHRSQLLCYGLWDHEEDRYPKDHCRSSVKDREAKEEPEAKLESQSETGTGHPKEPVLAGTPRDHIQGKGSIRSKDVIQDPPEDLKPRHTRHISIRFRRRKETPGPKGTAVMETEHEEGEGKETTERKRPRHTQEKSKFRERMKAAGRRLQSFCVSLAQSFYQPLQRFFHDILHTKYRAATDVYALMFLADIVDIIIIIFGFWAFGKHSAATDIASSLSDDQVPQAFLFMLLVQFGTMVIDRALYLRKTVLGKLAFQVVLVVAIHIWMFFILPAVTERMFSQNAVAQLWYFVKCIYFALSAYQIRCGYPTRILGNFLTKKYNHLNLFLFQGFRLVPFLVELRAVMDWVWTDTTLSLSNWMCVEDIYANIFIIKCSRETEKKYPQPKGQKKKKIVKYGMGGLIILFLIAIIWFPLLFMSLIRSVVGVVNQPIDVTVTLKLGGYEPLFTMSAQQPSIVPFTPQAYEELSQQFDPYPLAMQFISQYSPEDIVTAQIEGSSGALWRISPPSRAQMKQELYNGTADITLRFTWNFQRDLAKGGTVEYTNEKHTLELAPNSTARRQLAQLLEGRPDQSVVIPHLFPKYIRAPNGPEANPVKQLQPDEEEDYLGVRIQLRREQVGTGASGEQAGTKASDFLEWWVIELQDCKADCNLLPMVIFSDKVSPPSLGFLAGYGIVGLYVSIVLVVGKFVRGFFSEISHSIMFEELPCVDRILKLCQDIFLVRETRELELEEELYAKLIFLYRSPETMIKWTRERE
Experimental: For intracellular Ca^2+ assays, cells were plated at 80–90% confluence in 96-well plates 24 h prior to recordings (6–8 × 10^4 cells per well). […] Cells were washed with SBS and incubated at room temperature for 20 min prior to recordings. Equal volumes of 2x concentrated compounds were injected to test for acute channel activation. Pre-incubation with compounds occurred during the 20 min prior to recordings. To expose cell membranes to hypo-osmolality, an equal volume of hypotonic SBS (containing only 35 mM NaCl) was injected onto the cells. Measurements were made on a fluorescence plate reader (Flexstation III, Molecular Devices) at room temperature (21 ± 2°C). Fura-2 was excited at 340 nm and 380 nm and emitted light collected at 510 nm, with measurements shown as the change in fluorescence (F) ratio (ΔF340/380).
SI Figure S5: Hypo-osm ol al it y test in the Ca2+ assay, referred to in the main paper
(a) Typical 96-well plate mean ± s.e.m. data for changes in intracellular Ca2+ evoked by hypotonic (35 mM NaCl) or normotonic (135 mM NaCl) medium for WT- or Empty vector-transfected cells in increasing concentrations of Yoda1 as indicated and colour -coded on t he right (representative of n = 3-6 independent experiments). […]

[2] = Mouse microsomal stability; assay type: in vitro ADME; conditions: mouse microsomes
Experimental: as §1

[3] = set-up: method as in PMID 36457143, PMID 38716967, PMID 39402010; conditions: cited from earlier work
G1994D mPIEZO1 = molecular target: T2, G1994D mPIEZO1 (Mus musculus, UniProt E2JF22, G1994D); experiment: Long substance exposure (20 min exposure) Ca2+ assay; assay type: cell-based
T2 construct: expressed in transfected cells
T2 sequence (E2JF22 whole entry G1994D): as the sequence (E2JF22 whole entry) above, with G1994D counted along it
Excerpt: Supplement mmc2.xlsx, sheet "Figure 5e" | column: Mean normalise fluorescence

| unbound to mouse plasma proteins [1] [%] | more effective than Yoda1 under the hypotonic condition (WT mPIEZO1) | half-life [2] [min] | Mean normalise fluorescence (Figure 5e) (G1994D mPIEZO1; Yoda1 concentration 0.03 µM) | Mean normalise fluorescence (Figure 5e) (G1994D mPIEZO1; Yoda1 concentration 0.1 µM) | Mean normalise fluorescence (Figure 5e) (G1994D mPIEZO1; Yoda1 concentration 0.3 µM) | Mean normalise fluorescence (Figure 5e) (G1994D mPIEZO1; Yoda1 concentration 1 µM) | Mean normalise fluorescence (Figure 5e) (G1994D mPIEZO1; Yoda1 concentration 3 µM) | Mean normalise fluorescence (Figure 5e) (G1994D mPIEZO1; Yoda1 concentration 10 µM) | SMILES | aqueous solubility limit [3] [µM] |
| --- | --- | --- | --- | --- | --- | --- | --- | --- | --- | --- |
| 0.4 | about 25% | 7.2 |  |  |  |  |  |  | O=C(O)c1ccc(-c2cnc(SCc3c(Cl)cccc3Cl)s2)cc1 [Yoda2b, 4-(2-([(2,6-Dichlorophenyl)methyl]sulfanyl)-1,3-thiazol-5-yl)benzoic acid] |  |
|  |  |  | 0.2099 | 0.1039 | 0.5452 | 1.026 | 1 | 1.103 | Clc1cccc(Cl)c1CSc1nnc(-c2cnccn2)s1 [Yoda1] | ~2 (≈ 0.711 µg/mL) |
